Reference: patent publication EP0051084A1, “Substituted 1H-1,2,4-triazoles” (AMERICAN CYANAMID COMPANY, priority 1980, dated 1982)

What follows are compounds tested on Adjuvant induced experimental polyarthritis (assay: Adjuvant Arthritis Assay). Settings: rats, 50 mg./kg. orally once daily on days 0 through 13 post-challenge; injected paw measured on 14th day; RSA = treated/control.
Type: in vivo, Royal Hart Wistar strain rats
Set-up: key: Active: If the mean RSA of all three tests is less than 0.753, the compound is considered active
From the text: Adjuvant induced experimental polyarthritis is a specific systemic disease of the rat which shares interesting similarities with rheumatoid arthritis. Specifically, the histology of the two diseases bears a remarkable resemblence as shown by C. M. Pearson, et al, Am. J. Path., 42, 73 (1963). E. M. Glenn, Am. J. Vet. Res., 27, (116), 339 (1966) has classified adjuvant induced polyarthritis as a crippling and permanent deformity resulting from diffuse connective tissue involvement around certain susceptible joints in the rat. Zahiri, et al., Can. Med. Ass. J., 101, 269 (1969) have shown that the fusiform swelling of the distal joints is associated with edema, congestion and synovitis including pannus formation, all of which precede the ultimate destruction of bone and cartilage. Furthermore, Zahiri, et al., indicate that the cartilage destruction in the joint is due to an invasive pannus which originates in the marginal synovium and extends across the articular surface to erode it. […] The most pointed reference showing the relationship between arthritis and joint deterioration is "An X-Ray Analysis of Adjuvant Arthritis in the Rat; the Effect of Prednisolone and Indomethacin", Blackham, et al., Agents and Action, 7 (No. 1), 145-151 (1977). In a similar manner, inhibition of the progress of arhtritis in paws of rats treated with the compounds of this invention also lessens associated joint deterioration.
Groups of three Royal Hart Wistar strain rats, weighing 200 + 10 g. each were injected intradermally in the right hind paw with Freund's adjuvant (dried human tubercle bacilli in a mineral oil vehicle) at a dose of 2 mg./kg. of body weight. Test compounds were administered orally in a 1.5% starch vehicle at 50 mg./kg. of body weight once daily on days 0 through 13 post-challenge. Control rats were treated in a similar manner, buty given only starch vehicle. On the l4th day post-challenge the diameter of the injected paw (primary lesion) was measured by micrometer caliper. From these measurements of inflamed paws a determination was made of the relative surface area (RSA). This is a ratio of the mean surface area of the paws of 3 treated rats/mean surface area of the paws of 60 control rats. If the RSA is equal to or less than 0.76, the compound is retested. After the second test, the mean RSA for the rat paws from both tests is calculated and if it is equal to or less than 0.736 the compound is tested a third time. If the mean RSA of all three tests is less than 0.753, the compound is considered active.

Row | SMILES | Result (relative surface area (RSA) of injected paw)
1 | N#CCC(=O)Nc1ccc(-c2ncnn2-c2ccc(F)cc2)cc1 | Active
2 | Nc1ccc(-n2ncnc2-c2ccc(F)cc2)cc1 [1-(p-AminopUhenyl)-5-(p-fluorophenyl)-1H-1,2,4-triazole] | Active
3 | O=[N+]([O-])c1ccc(-c2ncnn2-c2ccc(Br)cc2)cc1 [1-(p-Bromophenyl)-5-(p-nitrophenyl)-1H-1,2,4-triazole] | Active
4 | O=[N+]([O-])c1ccc(-c2ncnn2-c2ccc(F)cc2)cc1 [1-(p-Fluorophenyl)-5-(p-nitrophenyl)-1H-1,2,4-triazole] | Active
5 | CN(C)C=Nc1ccc(-c2ncnn2-c2ccc(F)cc2)cc1 [1-(p-Fluorophenyl)-5-[p-[(dimethylaminomethylene)-amino]phenyl]-1H-1,2,4-triazole] | Active
6 | Nc1ccc(-c2ncnn2-c2ccc(Cl)cc2)cc1 [5-(p-Aminophenyl)-1-(p-chlorophenyl)-1H-1,2,4-triazole] | Active
7 | Nc1ccc(-c2ncnn2-c2ccc(F)cc2)cc1 [5-(p-Aminophenyl)-1-(p-fluorophenyl)-1H-1,2,4-triazole] | Active
8 | Nc1ccc(-c2ncnn2-c2ccccc2F)cc1 [5-(p-Aminophenyl)-l-(o-fluorophenyl)-lH-l,2,4-triazole] | Active
9 | Nc1ccc(-c2ncnn2-c2ccc(Br)cc2)cc1 [5-(p-Aminophenyl)-l-(p-bromophenyl)-lH-l,2,4-triazole] | Active
10 | O=[N+]([O-])c1ccc(-n2ncnc2-c2ccc(F)cc2)cc1 [5-(p-Fluorophenyl)-1-(p-nitrophenyl)-1H-1,2,4-triazole] | Active
11 | O=[N+]([O-])c1ccc(-c2ncnn2-c2ccccc2)cc1 [l-Phenyl-5-(p-nitrophenyl)-lH-l,2,4-triazole] | Active

The compounds below were run on migration of macrophages (assay: Migratory Inhibition Test (capillary tube migration assay for MIF inhibitors)). Settings: Dose 10 mcg./ml.; guinea pig peritoneal cells, 37°C. for 24 hours.
Type: cell-based, Male Hartley guinea pigs
Set-up: key: Active: Greater than 15% reversal of inhibition, c-b/a-b
From the text: Migratory Inhibition Test
Rheumatoid arthritis is a chronic inflammatory disease that is characterized by the migration of lymphocytes, macrophages and polymorphonuclear leukocytes to the sites of inflammation. The migration of lymphocytes and macrophages and their multiplication in situ is one reason for the very large increase in size of the normally thin synovial membrane which encloses the joint space. This transformed synovial membrane slowly grows over the articular surfaces and causes the destruction of the articular cartilage and other connective tissue structures of the joint. One of the mechanisms for the destruction of articular cartilage by the synovium is through the release of various hydrolytic enzymes by the resident macrophages which have been immobilized and activated by migration inhibitory factor (MIF). Macrophages stimulated by MIF are termed "activated macrophages" and undergo the following changes: (a) increased glucose oxidation, (b) increased ruffling of plasma membrane and increased spreading of cells, (c) synthesis and secretion of neutral proteases, (d) release of preformed lysosomal enzymes, (e) decreased migration from a capillary tube. […] The mechanism of cartilage destruction can be pictured as follows: [formula]
Drugs that can therefore block the release of MIF by lymphocytes or the activation of macrophages by MIF may be clinically effective in retarding the destructive joint damage which occurs in rheumatoid arthritis. Drugs can be tested as MIF inhibitors by using the capillary tube migration assay as follows: Male Hartley guinea pigs, weighing between 300 and 600 grams, were injected intraperitoneally with 25 ml. of Marcal 52 Oil@ (Humble Oil Co.). Three to four days later the guinea pigs were decapitated, the peritoneum opened and 50 ml. of cold Hank's solution added to the peritoneum. The Hank's solution containing the cell suspension was then aspirated into a separatory funnel. This procedure was repeated twice. […] Viability of the cells was then determined using trypan blue. […]

Row | SMILES | Result (reversal of antigen inhibition of macrophage migration)
12 | O=[N+]([O-])c1ccc(-c2ncnn2-c2ccc(Br)cc2)cc1 [1-(p-Bromophenyl)-5-(p-nitrophenyl)-1H-1,2,4-triazole] | Active
13 | c1ccc(-n2ncnc2-c2ccncc2)cc1 [4-(1-Phenyl-1H-1,2,4-triazol-5-yl)pyridine] | Active
14 | Nc1ccc(-c2ncnn2-c2ccc(Br)cc2)cc1 [5-(p-Aminophenyl)-l-(p-bromophenyl)-lH-l,2,4-triazole] | Active

These compounds were tested on carrageenin inflamed feet (assay: Carrageenin Edema Assay). Settings: rats, 250 mg./kg. by gavage; measured 5 hours after drug administration (4 hours after carrageenin challenge).
Type: in vivo, Royal Hart, Wistar strain rats
Set-up: key: Active: If the mean ratio of test 1 and 2 is equal to or greater than 1.43, the compound is considered active
Description: Royal Hart, Wistar strain rats ranging in weight from 80 to 90 grams were used. The rats were fasted overnight prior to dosing but had free access to water. The test compounds were administered in aqueous suspension, by gavage, in a volume of 1.7 ml. per 50 grams of rat [corresponds to hydration volume used by Winter, et al., Proc. Soc. Exp. Biol. & Med., Ill, 544-547 (1962)]. The dose of all compounds was 250 mg./kq. The phlogistic agent used was carrageenin prepared as a sterile 1% suspension in 0.9% aqueous sodium chloride for routine testing. A volume of 0.05 ml. was injected into the plantar tissue of the right hind paw. Measurements were made 5 hours after drug administration (4 hours after carrageenin challenge). The paw of the unanesthetized rat was immersed in mercury exactly to an ink mark on the skin over the lateral malleolus. The mercury was contained in a glass cylinder 25 x 60 mm. The mercury column was connected with a Statham pressure transducer (model P23BB), range 0-5 cm. mercury. The output from the transducer was led through a model 260BLH signal conditioning unit and visualized by digital indicator. Volumes of both the normal and carrageenin inflamed feet were determined. The difference between the two measurements was considered to be the increased edema due to the carrageenin administration. Results were expressed as a control (C)/treated (T) efficacy ratio. (The ratio of mean edema volume of 8 control rats over the mean edema volume of 2 treated rats.) If the C/T ratio is equal to or greater than 1.41, the test is repeated. If the mean ratio of test 1 and 2 is equal to or greater than 1.43, the compound is considered active. The results of this test with typical compounds of this invention are recorded in Table

Row | SMILES | Result (control (C)/treated (T) efficacy ratio of edema volume)
15 | c1ccc(-c2ncnn2-c2ccccc2)cc1 [1,5-Diphenyl-1H-1,2,4-triazole, 1,5-Diphenyl-lH-1,2,4-triazole] | Active
16 | COc1cc(-c2nc(C)nn2-c2ccc(Br)cc2)cc(OC)c1OC [1-(p-Bromophenyl)-3-methyl-5-(3,4,5- -trimethoxyphenyl)-lH-1,2,4-triazole] | Active
17 | Clc1ccc(-n2ncnc2-c2cnccn2)cc1 [2-fl-(p-Chlorophenyl)-lH-1,2,4-triazol-5-yllpyrazine] | Active
18 | c1cncc(-c2nnc[nH]2)c1 [3-(4H-1,2,4-Triazol-3-yl)-pyridine] | Active
19 | c1ccc(-n2ncnc2-c2ccncc2)cc1 [4-(1-Phenyl-1H-1,2,4-triazol-5-yl)pyridine] | Active
20 | Fc1ccc(-n2ncnc2-c2ccncc2)cc1 [4-[1-(p-Fluorophenyl)-1H-1,2,4-triazol-5-yl]pyridine] | Active
21 | O=[N+]([O-])c1ccc(-n2ncnc2-c2cnccn2)cc1 [(1-(p-Nitrophenyl)-1H-1,2,4-triazol-5-yl]pyrazine] | Active
22 | O=S(=O)(c1ccc(-n2ncnc2-c2cnccn2)cc1)C(F)F [{1-[p-(Difluoromethylsulfonyl)phenyl]-1H-1,2,4--triazol-5-yl}pyrazine] | Active
